Test results taken from PMC6411960, “Discovery of Novel Androgen Receptor Ligands by Structure-based Virtual Screening and Bioassays” (Genomics, Proteomics & Bioinformatics, 2019).
Where two headings read alike, the source gives them in different places.

Key:
LNCaP cells = experiment: MTT cell proliferation assay, LNCaP; type: cell-based; conditions: for effect on growth of LNCaP cells: various concentrations; for inhibition at 10 µM: Homo sapiens, LNCaP cell line, compound at 10 μM; for decrease in cell viability / change in cell viability: 30 µM, versus cells not treated; for change in cell viability: P = 0.0001
Procedure: 3-(4,5-Dimethythiazol-2-yl)-2,5-diphenyl-2-H-tetrazolium bromid (MTT) colorimetric assay was utilized to evaluate cell proliferation, which can reflect the bioactivity and cytotoxicity of test compounds at cellular level. […] After incubation at 37 °C for 24 h, cells were treated with serial dilutions of indicated compounds (and 1 nM DHT for LNCaP culture) and incubated for another 3 days. Afterward, 10 μl of 5 mg/ml MTT solution was added into each well and further incubated for another 4 h. Then, 100 μl of triplex 10% SDS-0.1% HCl-PBS solutions were added to dissolve the formazan deposited on the bottom of the plates and the plates were then further retained in incubator overnight. The absorbance at 570 nm was measured with the reference wavelength at 650 nm with a spectrophotometer (Bioteck Eon, Winooski, VT).

[1] = test system: AR transcriptional activity; experiment: LNCaP-ARR2PB-eGFP transcriptional activity assay, agonist mode (without DHT); type: cell-based
Procedure: 1 nM DHT was added for background fluorescence. In addition, cells receiving equal volume of DMSO solution with (dark gray bar) or without (light gray bar) DHT served as controls too. […] C. […] The test concentrations range from 0.001 nM to 10 µM. DHT served as the positive control. Assays were performed in triplicate. Multiple group comparisons were analyzed with 1-way ANOVA (**, P < 0.05 were considered statistically significant).
The agonistic effects of the screened compounds were analyzed by stimulating the cell growth of LNCaP-ARR2PB-eGFP without prior addition of DHT. Cells were incubated with various concentrations of HBP1-3, HBP1-17, HBP1-38, and HBP1-51, respectively, ranging from 1 × 10^−3 nM to 1 × 10^4 nM (Figure 4C).
A cell line of LNCaP that stably expresses eGFP under the regulation of an androgen response element was generated to investigate the agonist/antagonist activity of the selected compounds as previously described, [34]. […] For lentiviral infection, LNCaP cells were plated and proliferated to a confluence of 60% before adding 5 ml of the collected lentivirus. Medium was refreshed 16 h later and cells were incubated for another two days. GFP expression in the transfected cell was examined with a fluorescent microscope. Subsequently, the infected cells were cultured in complete medium containing 1 μg/ml puromycin. This procedure was repeated for three cycles in the next subculture process to adequately eliminate the non-transfected clones. Cells surviving the screening process were AR-regulated eGFP-expressing LNCaP cells (LNCaP-ARR2PB-eGFP) and were cultured for subsequent antagonist/agonist assay.

C4-2 cells = experiment: MTT cell proliferation assay, C4-2; type: cell-based; conditions: for reduction of cell viability: C4-2, 30 µM, versus cells without treatment
Source text: We further tested C4-2, an androgen-independent AR^+ PCa cell line, which is more malignant than LNCaP. […] Given inhibitory effect was only observed at higher concentrations, it remains to be addressed whether the inhibition is attributed to AR blocking or the inherent toxicities of the tested compounds. We thus tested these compounds on DU145, an AR^− PCa cell line.
3-(4,5-Dimethythiazol-2-yl)-2,5-diphenyl-2-H-tetrazolium bromid (MTT) colorimetric assay was utilized to evaluate cell proliferation, which can reflect the bioactivity and cytotoxicity of test compounds at cellular level. PCa cells were cultured in 1640 RPMI media containing 5% charcoal-stripped serum (CSS) at a density of 5000 cells per well for LNCaP, 1000 cells per well for C4-2, and 2000 cells per well for DU145 in 96-well plates. After incubation at 37 °C for 24 h, cells were treated with serial dilutions of indicated compounds (and 1 nM DHT for LNCaP culture) and incubated for another 3 days. Afterward, 10 μl of 5 mg/ml MTT solution was added into each well and further incubated for another 4 h. Then, 100 μl of triplex 10% SDS-0.1% HCl-PBS solutions were added to dissolve the formazan deposited on the bottom of the plates and the plates were then further retained in incubator overnight. The absorbance at 570 nm was measured with the reference wavelength at 650 nm with a spectrophotometer (Bioteck Eon, Winooski, VT).

AR-LBD = target: T1, AR-LBD (Homo sapiens, UniProt P10275); experiment: PolarScreen AR competitor assay (fluorescence polarization); type: binding; conditions: competition with Flu-AR ligand; for EC50: gradient concentrations 0.1–100 µM, read-out: Binding EC50; for IC50: 0.1–100 µM, read-out: IC50, binding to AR-LBD
T1 sequence (P10275 669-900 limits assumed): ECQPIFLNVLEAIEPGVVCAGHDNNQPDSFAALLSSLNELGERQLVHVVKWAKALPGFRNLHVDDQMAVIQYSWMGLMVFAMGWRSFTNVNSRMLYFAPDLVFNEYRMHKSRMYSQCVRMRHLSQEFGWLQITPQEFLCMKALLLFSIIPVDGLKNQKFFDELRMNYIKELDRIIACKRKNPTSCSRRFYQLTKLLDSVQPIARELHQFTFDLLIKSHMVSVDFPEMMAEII

[2] = test system: AR transcriptional activity; experiment: LNCaP-ARR2PB-eGFP transcriptional activity assay, antagonist mode (with DHT); type: cell-based; conditions: for effect on eGFP expression: 10 µM compound in the presence of 1 nM DHT, versus DHT control; for EC50: read-out: Antagonistic EC50
[3] = without DHT, 1 × 10^−3 nM to 1 × 10^4 nM
[4] = LNCaP-ARR2PB-eGFP, in the presence of DHT

SMILES	effect on growth of LNCaP cells (LNCaP cells; LNCaP)	agonistic effect on eGFP expression [1, 3]	inhibition at 10 µM (LNCaP cells)	reduction of cell viability (C4-2 cells)	EC50 (AR-LBD)	effect on eGFP expression [2]	also measured
CNC(=O)c1ccc(N2C(=S)N(c3ccc(C#N)c(C(F)(F)F)c3)C(=O)C2(C)C)cc1F [Enz, enzalutamide, reference compound]	reduced the growth of LNCaP cells in a dose-dependent manner	–	–	–	–	–	–
COc1ccc(CC2(CCC(=O)NCCn3ccc4ccccc43)CCC(=O)N2)c2ccccc12 (centres unmarked) [HBP1-38]	–	did not cause notable change	18.6 ± 4.7%	~40%	> 30 µM	promoted eGFP expression	inhibitory effect on LNCaP growth (LNCaP cells; LNCaP, 10 µM): inhibitory effect comparable to Bic; decrease in cell viability (LNCaP cells; LNCaP): ≥ 40%
Cc1ccccc1NCC(=O)N/N=C/c1ccc(-c2ccc(Cl)c(Cl)c2)o1 [HBP1-58]	–	–	2.2 ± 0.8%	–	4.92 µM	significantly reduced eGFP expression	change in cell viability (LNCaP cells; LNCaP): significant decrease in cell viability; IC50 (AR-LBD): 4.92 µM; EC50 [2, 4]: 3.25 ± 0.43 µM; IC50 ([2]; LNCaP-ARR2PB-eGFP, with DHT, read-out: IC50, antagonistic effect on AR transcriptional activity): 3.25 ± 0.43 µM
O=C(CC1C(=O)NCCN1Cc1cccc2ccccc12)NCCn1ccc2ccccc21 (centres unmarked) [HBP1-17]	–	did not cause notable change	7.8 ± 4.1%	10%	> 30 µM	did not show obvious effect on eGFP expression	decrease in cell viability (LNCaP cells; LNCaP): ≥ 20%
CC(O)(CS(=O)(=O)c1ccc(F)cc1)C(=O)Nc1ccc(C#N)c(C(F)(F)F)c1 (centres unmarked) [Bic, bicalutamide, reference compound]	reduced the growth of LNCaP cells in a dose-dependent manner	–	16.5 ± 1%	–	–	–	EC50 [2]: 0.69 ± 0.085 µM
Nc1ccc2c(c1)C(=O)N(c1cccc3ccccc13)C2=O [HBP1-3]	–	did not cause notable change	7.8 ± 4.4%	12%	> 30 µM	did not show obvious effect on eGFP expression	change in cell viability (LNCaP cells; LNCaP): significant decrease in cell viability
Cc1cc(O)nc2ccc(S(=O)(=O)Nc3ccc(O)cc3)cc12 [HBP1-51]	did not show apparent inhibition tendency	dose-dependent upregulation of GFP expression	–	–	3.96 µM	promoted eGFP expression	maximum increase of cell viability (C4-2 cells; C4-2, all tested concentrations, versus untreated cells, not significant (P = 0.14)): below 20%; IC50 (AR-LBD): 3.96 µM; Antagonistic EC50 [2, 4]: Agonist
C[C@]12CCC(=O)C[C@@H]1CC[C@@H]1[C@@H]2CC[C@]2(C)[C@@H](O)CC[C@@H]12 [DHT, dihydrotestosterone, reference compound]	–	–	–	–	–	–	agonistic effect on eGFP expression [1]: upregulated eGFP expression in a dose-dependent manner
